Reference: patent US20250154472A1, “Culture Medium for Expanding Breast Epithelial Stem Cells” (Koninklijke Nederlandse Akademie Van Wetenschappen, priority 2014, published 2025)

Tests used:
Type in all cases: cell-based, human
[1] = system: mammary tumor organoid line W855T; assay: Low throughput drug screen, cell viability (CellTiter-Glo 2.0), W855T; conditions: 7 days
Description: (§1) Organoids were photographed every 3-4 days (FIG. 8) and cell viability measured at day 7 using the CellTiter-Glo 2.0 assay (G9241, Promega) (FIG. 9).
(§2) All three organoid lines respond to Iressa at concentrations ˜10 μM indicating a dependence on EGFR signaling. […] Mammary tumor organoids are suitable for cell viability based low throughput drug screens in a 96-well format. We are currently testing the assay in a 384-well plate format which has been successfully established for colon cancer organoids.

[2] = system: mammary tumor organoid line W854T; assay: Low throughput drug screen, cell viability (CellTiter-Glo 2.0), W854T; conditions: 7 days, 1 nM-30 μM, 96-well
Description: as §1, §2

[3] = system: mammary tumor organoid line W859T; assay: Low throughput drug screen, cell viability (CellTiter-Glo 2.0), W859T; conditions: 7 days, 1 nM-30 μM, 96-well
Description: as §1, §2

[4] = system: mammary tumor organoid line W854T; assay: Organoid growth in medium containing Nutlin-3; conditions: 5 μM Nutlin-3

Compound	concentration at which organoids respond (growth/viability) ([1]; 1 nM-30 μM, 96-well) [µM]	concentration at which organoids respond (growth/viability) [2] [µM]	concentration at which organoids respond (growth/viability) [3] [µM]	growth in medium containing the p53 stabilizer [4]	growth inhibition at concentrations up 30 μM [1]
COc1cc2ncnc(Nc3ccc(F)c(Cl)c3)c2cc1OCCCN1CCOCC1 [Iressa]	~10	~10	~10		
COc1ccc(C2=N[C@@H](c3ccc(Cl)cc3)[C@@H](c3ccc(Cl)cc3)N2C(=O)N2CCNC(=O)C2)c(OC(C)C)c1 [Nutlin-3]		> 30	> 30	readily grew	perhaps the exception
